As a reminder, the EC50 is the concentration giving half of the maximal effect.

The structures appear in SMILES notation. Numbered stars: 1 amine (or outer) side, 2 acyl side, 3 side chain; on linkers, the order of the positions; unused ones are H or OH. Bridge positions count the residues as written; N and C are the ends. Square brackets hold non-standard residues; d marks the D form. Side chains are listed from the residue outwards. Peptide text beside a SMILES is read from it. * marks the point of attachment. C20 diacid = O=C(O)CCCCCCCCCCCCCCCCCCC(=O)*; C18 diacid = O=C(O)CCCCCCCCCCCCCCCCC(=O)*; γGlu = O=C(O)[C@H](CCC(=O)[*:2])N[*:1]; Hyp = O=C(O)[C@@H]1C[C@@H](O)CN1; Orn = NCCC[C@H](N)C(=O)O; AEEA = NCCOCCOCC(=O)O; Inp = O=C(O)C1CCNCC1

The target in the experiment is T1, human amylin receptor (Homo sapiens, UniProt O60896+P30988).
T1 construct: host or cells: CHO-K1/Ga15/AMY3 cells, further stably transfected with a CRE-luciferase plasmid
T1 sequence (P30988 25-474): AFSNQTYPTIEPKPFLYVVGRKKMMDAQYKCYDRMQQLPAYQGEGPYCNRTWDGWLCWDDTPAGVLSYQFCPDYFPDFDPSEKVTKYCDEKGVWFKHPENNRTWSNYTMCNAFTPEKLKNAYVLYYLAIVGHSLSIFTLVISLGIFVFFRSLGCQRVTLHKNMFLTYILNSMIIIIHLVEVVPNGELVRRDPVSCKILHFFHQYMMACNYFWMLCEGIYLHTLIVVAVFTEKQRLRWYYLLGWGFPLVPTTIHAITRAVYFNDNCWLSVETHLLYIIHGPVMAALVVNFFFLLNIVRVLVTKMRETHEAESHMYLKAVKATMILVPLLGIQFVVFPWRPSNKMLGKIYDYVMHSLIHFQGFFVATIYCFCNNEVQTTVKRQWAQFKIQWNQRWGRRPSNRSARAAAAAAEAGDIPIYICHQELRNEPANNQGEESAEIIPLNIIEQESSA
T1 sequence (O60896 24-148 partner): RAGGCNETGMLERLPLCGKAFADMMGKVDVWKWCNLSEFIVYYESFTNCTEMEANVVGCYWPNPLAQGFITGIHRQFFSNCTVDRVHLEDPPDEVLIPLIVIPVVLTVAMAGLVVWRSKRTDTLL
Briefly: Luciferase assay of amylin derivatives in amylin receptor/CRE-luc CHO cell line. It counts as cell-based. Conditions: CHO-K1/Ga15/AMY3 CRE-luc cells, 24 hours incubation, F12 medium containing 10% FBS; read-out: EC50.
Protocol: The experiment was intended to detect the activity or efficacy of the amylin derivatives on a human amylin receptor in vitro by luciferase assay.
50 μL of growth medium (F12 medium containing 10% FBS) was added into each well of a white 96-well plate, and the stably transfected amylin/CRE-lue CHO cells were inoculated into the white 96-well plate at a density of about 20,000 cells/well for activity determination.
Take `CC[C@H](C)[C@H](NC(=O)[C@@H]1CCCN1C(=O)[C@H](CCCCN)NC(=O)[C@H](CC(C)C)NC(=O)[C@H](CC(N)=O)NC(=O)[C@H](CC(N)=O)NC(=O)[C@H](CO)NC(=O)[C@H](CO)NC(=O)[C@H](Cc1c[nH]cn1)NC(=O)[C@H](CCCNC(=N)N)NC(=O)[C@H](CC(C)C)NC(=O)[C@H](Cc1ccccc1)NC(=O)[C@H](CC(=O)O)NC(=O)[C@H](C)NC(=O)[C@H](CC(C)C)NC(=O)[C@H](CCCNC(=N)N)NC(=O)[C@H](CCC(N)=O)NC(=O)[C@@H](NC(=O)[C@H](C)NC(=O)[C@@H]1CSSC[C@H](NC(=O)[C@H](CCCCN)NC(=O)C2CCN(C(=O)COCCOCCNC(=O)COCCOCCNC(=O)CCCCCCCCCCCCCCCCCCC(=O)O)CC2)C(=O)N[C@@H](CC(N)=O)C(=O)N[C@@H]([C@@H](C)O)C(=O)N[C@@H](C)C(=O)N[C@@H]([C@@H](C)O)C(=O)N1)[C@@H](C)O)C(=O)N[C@@H](CC(C)C)C(=O)N1CCC[C@H]1C(=O)N1CCC[C@H]1C(=O)N[C@H](C(=O)N[C@@H](CC(N)=O)C(=O)N[C@H](C(=O)NCC(=O)N[C@@H](CO)C(=O)N[C@@H](CC(N)=O)C(=O)N[C@H](C(=O)N1CCC[C@H]1C(N)=O)[C@@H](C)O)C(C)C)[C@@H](C)O` [PD192] ({C20 diacid-AEEA-AEEA-Inp}-KCNTATCATQRLADFLRHSSNNLKPILPPTNVGSNTP-NH2; disulfide 2-7 (inferred)): the 50% effective concentration (EC50) stood at 0.087 nM. For `CC[C@H](C)[C@H](NC(=O)[C@@H]1CCCN1C(=O)CNC(=O)[C@H](CC(C)C)NC(=O)[C@H](CC(N)=O)NC(=O)[C@H](CCCCNC(=O)COCCOCCNC(=O)CC[C@H](NC(=O)CCCCCCCCCCCCCCCCC(=O)O)C(=O)O)NC(=O)[C@H](CO)NC(=O)[C@H](CO)NC(=O)[C@H](Cc1c[nH]cn1)NC(=O)[C@H](CCCNC(=N)N)NC(=O)[C@H](CC(C)C)NC(=O)[C@H](Cc1ccccc1)NC(=O)[C@H](CC(=O)O)NC(=O)[C@H](C)NC(=O)[C@H](CC(C)C)NC(=O)[C@H](CCCNC(=N)N)NC(=O)[C@H](CCC(N)=O)NC(=O)[C@@H](NC(=O)[C@H](C)NC(=O)[C@@H]1CSSC[C@H](NC(=O)[C@@H](N)CCCNC(=N)N)C(=O)N[C@@H](CC(N)=O)C(=O)N[C@@H]([C@@H](C)O)C(=O)N[C@@H](C)C(=O)N[C@@H]([C@@H](C)O)C(=O)N1)[C@@H](C)O)C(=O)N[C@@H](CC(C)C)C(=O)N1CCC[C@H]1C(=O)N1CCC[C@H]1C(=O)N[C@H](C(=O)N[C@@H](CC(N)=O)C(=O)N[C@H](C(=O)NCC(=O)N[C@@H](CO)C(=O)N[C@@H](CC(N)=O)C(=O)N[C@H](C(=O)N1C[C@H](O)C[C@H]1C(N)=O)[C@@H](C)O)C(C)C)[C@@H](C)O` [PD115] (H-RCNTATCATQRLADFLRHSSK([AEEA-γGlu-C18 diacid])NLGPILPPTNVGSNT[Hyp]-NH2; disulfide 2-7), the EC50 was found to be 0.011 nM. As to `CC[C@H](C)[C@H](NC(=O)[C@@H]1CCCN1C(=O)[C@H](CCCCNC(=O)CC[C@H](NC(=O)CCCCCCCCCCCCCCCCCCC(=O)O)C(=O)O)NC(=O)[C@H](CC(C)C)NC(=O)[C@H](CC(N)=O)NC(=O)[C@H](CC(N)=O)NC(=O)[C@H](CO)NC(=O)[C@H](CO)NC(=O)[C@H](Cc1c[nH]cn1)NC(=O)[C@H](CCCNC(=N)N)NC(=O)[C@H](CC(C)C)NC(=O)[C@H](Cc1ccccc1)NC(=O)[C@H](CC(=O)O)NC(=O)[C@H](C)NC(=O)[C@H](CC(C)C)NC(=O)[C@H](CCCNC(=N)N)NC(=O)[C@H](CCC(N)=O)NC(=O)[C@@H](NC(=O)[C@H](C)NC(=O)[C@@H]1CSSC[C@H](NC(=O)[C@@H](N)CCCCN)C(=O)N[C@@H](CC(N)=O)C(=O)N[C@@H]([C@@H](C)O)C(=O)N[C@@H](C)C(=O)N[C@@H]([C@@H](C)O)C(=O)N1)[C@@H](C)O)C(=O)N[C@@H](CC(C)C)C(=O)N1CCC[C@H]1C(=O)N1CCC[C@H]1C(=O)N[C@H](C(=O)N[C@@H](CC(N)=O)C(=O)N[C@H](C(=O)NCC(=O)N[C@@H](CO)C(=O)N[C@@H](CC(N)=O)C(=O)N[C@H](C(=O)N1C[C@H](O)C[C@H]1C(N)=O)[C@@H](C)O)C(C)C)[C@@H](C)O` [PD076] (H-KCNTATCATQRLADFLRHSSNNLK([γGlu-C20 diacid])PILPPTNVGSNT[Hyp]-NH2; disulfide 2-7), the EC50 was found to be 0.04 nM.

`CC[C@H](C)[C@H](NC(=O)[C@@H]1CCCN1C(=O)CNC(=O)[C@H](CC(C)C)NC(=O)[C@H](CC(N)=O)NC(=O)[C@H](CCCCNC(=O)CC[C@H](NC(=O)CCCCCCCCCCCCCCCCCCC(=O)O)C(=O)O)NC(=O)[C@H](CO)NC(=O)[C@H](CO)NC(=O)[C@H](Cc1c[nH]cn1)NC(=O)[C@H](CCCNC(=N)N)NC(=O)[C@H](CC(C)C)NC(=O)[C@H](Cc1ccccc1)NC(=O)[C@H](CC(=O)O)NC(=O)[C@H](C)NC(=O)[C@H](CC(C)C)NC(=O)[C@H](CCCNC(=N)N)NC(=O)[C@H](CCC(N)=O)NC(=O)[C@@H](NC(=O)[C@H](C)NC(=O)[C@@H]1CSSC[C@H](NC(=O)[C@@H](N)CCCNC(=N)N)C(=O)N[C@@H](CC(N)=O)C(=O)N[C@@H]([C@@H](C)O)C(=O)N[C@@H](C)C(=O)N[C@@H]([C@@H](C)O)C(=O)N1)[C@@H](C)O)C(=O)N[C@@H](CC(C)C)C(=O)N1CCC[C@H]1C(=O)N1CCC[C@H]1C(=O)N[C@H](C(=O)N[C@@H](CC(N)=O)C(=O)N[C@H](C(=O)NCC(=O)N[C@@H](CO)C(=O)N[C@@H](CC(N)=O)C(=O)N[C@H](C(=O)N1C[C@H](O)C[C@H]1C(N)=O)[C@@H](C)O)C(C)C)[C@@H](C)O` [PD090] (H-RCNTATCATQRLADFLRHSSK([γGlu-C20 diacid])NLGPILPPTNVGSNT[Hyp]-NH2; disulfide 2-7): the EC50 came to 0.031 nM.

As for `CC[C@H](C)[C@H](NC(=O)[C@H](CCCCNC(=O)COCCOCCNC(=O)COCCOCCNC(=O)CC[C@H](NC(=O)CCCCCCCCCCCCCCCCC(=O)O)C(=O)O)NC(=O)CNC(=O)[C@H](CC(C)C)NC(=O)[C@H](CC(N)=O)NC(=O)[C@H](CC(N)=O)NC(=O)[C@H](CO)NC(=O)[C@H](CO)NC(=O)[C@H](Cc1c[nH]cn1)NC(=O)[C@H](CCCNC(=N)N)NC(=O)[C@H](CC(C)C)NC(=O)[C@H](Cc1ccccc1)NC(=O)[C@H](CC(=O)O)NC(=O)[C@H](C)NC(=O)[C@H](CC(C)C)NC(=O)[C@H](CCCNC(=N)N)NC(=O)[C@H](CCC(N)=O)NC(=O)[C@@H](NC(=O)[C@H](C)NC(=O)[C@@H]1CSSC[C@H](NC(=O)[C@@H](N)CCCNC(=N)N)C(=O)N[C@@H](CC(N)=O)C(=O)N[C@@H]([C@@H](C)O)C(=O)N[C@@H](C)C(=O)N[C@@H]([C@@H](C)O)C(=O)N1)[C@@H](C)O)C(=O)N[C@@H](CC(C)C)C(=O)N1CCC[C@H]1C(=O)N1CCC[C@H]1C(=O)N[C@H](C(=O)N[C@@H](CC(N)=O)C(=O)N[C@H](C(=O)NCC(=O)N[C@@H](CO)C(=O)N[C@@H](CC(N)=O)C(=O)N[C@H](C(=O)N1C[C@H](O)C[C@H]1C(N)=O)[C@@H](C)O)C(C)C)[C@@H](C)O` [PD105] (H-RCNTATCATQRLADFLRHSSNNLGK([AEEA-AEEA-γGlu-C18 diacid])ILPPTNVGSNT[Hyp]-NH2; disulfide 2-7), the EC50 came to 0.033 nM. As for `CC[C@H](C)[C@H](NC(=O)[C@@H]1CCCN1C(=O)[C@H](CCCN)NC(=O)[C@H](CC(C)C)NC(=O)[C@H](CC(N)=O)NC(=O)[C@H](CC(N)=O)NC(=O)[C@H](CO)NC(=O)[C@H](CO)NC(=O)[C@H](Cc1c[nH]cn1)NC(=O)[C@H](CCCNC(=N)N)NC(=O)[C@H](CC(C)C)NC(=O)[C@H](Cc1ccccc1)NC(=O)[C@H](CC(=O)O)NC(=O)[C@H](C)NC(=O)[C@H](CC(C)C)NC(=O)[C@H](CCCNC(=N)N)NC(=O)[C@H](CCC(N)=O)NC(=O)[C@@H](NC(=O)[C@H](C)NC(=O)[C@@H]1CSSC[C@H](NC(=O)[C@H](CCCCN)NC(=O)CC[C@H](NC(=O)CCCCCCCCCCCCCCCCCCC(=O)O)C(=O)O)C(=O)N[C@@H](CC(N)=O)C(=O)N[C@@H]([C@@H](C)O)C(=O)N[C@@H](C)C(=O)N[C@@H]([C@@H](C)O)C(=O)N1)[C@@H](C)O)C(=O)N[C@@H](CC(C)C)C(=O)N1CCC[C@H]1C(=O)N1CCC[C@H]1C(=O)N[C@H](C(=O)N[C@@H](CC(N)=O)C(=O)N[C@H](C(=O)NCC(=O)N[C@@H](CO)C(=O)N[C@@H](CC(N)=O)C(=O)N[C@H](C(=O)N1CCC[C@H]1C(N)=O)[C@@H](C)O)C(C)C)[C@@H](C)O` [PD170] ({C20 diacid-γGlu}-KCNTATCATQRLADFLRHSSNNL[Orn]PILPPTNVGSNTP-NH2; disulfide 2-7 (inferred)), the 50% effective concentration (EC50) turned out to be 0.041 nM.

Values taken from patent US20260166128A1, “HUMAN AMYLIN ANALOG, AND DERIVATIVE THEREOF AND USE THEREOF” (priority 2022, published 2026).
